The subject of assay [1] is M. tuberculosis H37Rv. The experiment in a line: microbe, parasite or virus in culture. The class given is cell-based, Mycobacterium tuberculosis. The conditions noted are these: for MIC: Mycobacterium tuberculosis, H37RV, read-out: M. tuberculosis MIC.
In assay [2] the test system is Dxr. Conditions: cited from earlier work.
Assay [3] addresses Yp Dxr (Yersinia pestis, UniProt Q8ZH62). The class given is biochemical. Conditions: for IC50: read-out: Yp Dxr IC50.
Assay [4] has as its system Yp. The class given is cell-based, Yersinia pestis.
Assay [5] deals with T1, Mtb Dxr (Mycobacterium tuberculosis, UniProt P9WNS1).
T1 sequence (P9WNS1 1-413): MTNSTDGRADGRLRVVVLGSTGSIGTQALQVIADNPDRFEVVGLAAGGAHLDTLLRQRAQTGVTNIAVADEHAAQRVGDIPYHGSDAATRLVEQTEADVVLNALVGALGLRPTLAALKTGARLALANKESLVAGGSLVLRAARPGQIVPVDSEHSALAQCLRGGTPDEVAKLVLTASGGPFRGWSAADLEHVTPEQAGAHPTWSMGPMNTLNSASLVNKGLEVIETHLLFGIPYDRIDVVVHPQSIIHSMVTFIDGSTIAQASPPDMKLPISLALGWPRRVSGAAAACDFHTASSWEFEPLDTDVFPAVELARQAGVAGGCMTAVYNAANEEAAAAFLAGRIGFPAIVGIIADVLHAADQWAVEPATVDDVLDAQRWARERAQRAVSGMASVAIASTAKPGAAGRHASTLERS
The class given is biochemical. The conditions noted are these: for IC50: read-out: Mtb Dxr IC50.

In assay [6] the test system is E. coli MG1655. The class given is cell-based, Escherichia coli.

Molecules are shown by their SMILES. In brackets after ≈: the same amount, converted by molar mass. Entries after “also recorded” stand apart in the source; their conditions may differ. Read-outs that look alike come from different tables or passages of the source.

Yp Dxr, sequence (Q8ZH62 whole entry, looked up): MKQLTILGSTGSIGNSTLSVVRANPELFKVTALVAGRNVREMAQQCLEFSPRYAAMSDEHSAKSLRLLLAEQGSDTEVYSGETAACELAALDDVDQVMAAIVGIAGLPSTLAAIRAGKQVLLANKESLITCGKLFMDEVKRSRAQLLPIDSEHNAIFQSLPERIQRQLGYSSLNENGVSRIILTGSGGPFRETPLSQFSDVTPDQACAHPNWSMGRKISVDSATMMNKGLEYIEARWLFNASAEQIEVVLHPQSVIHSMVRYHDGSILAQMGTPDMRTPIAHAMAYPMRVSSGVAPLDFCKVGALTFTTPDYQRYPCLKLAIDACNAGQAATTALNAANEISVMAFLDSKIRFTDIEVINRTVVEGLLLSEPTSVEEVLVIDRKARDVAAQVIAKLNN

As for `O=CN(O)CCCP(=O)(O)O` [Compound 1, fosmidomycin, reference compound], in assay [1], the MIC was greater than 500 µg/mL. Further, the mechanism of inhibition result in assay [2] was “competitive inhibitors with respect to DXP and uncompetitive relative to NADPH”.
By IC50 is commonly meant the concentration that gives 50% inhibition. Turning to `CC(=O)N(O)CCCP(=O)(O)O` [Compound 2, FR900098], the “M. tuberculosis MIC” value in assay [1] was greater than 500 µg/mL. Besides, the half-maximal inhibitory concentration (IC50) is 0.23 µM in assay [3] and 2.91 µM in assay [5]. Moreover, the “growth inhibition activity (in words)” value in assay [4] and in assay [6] was “potently inhibits bacterial propagation in a dose-dependent manner” throughout. The mechanism of inhibition result in assay [2] was “competitive inhibitors with respect to DXP and uncompetitive relative to NADPH”.
Usually Ki stands for a measure of affinity in units of concentration, obtained from inhibition or displacement. Regarding `O=C(c1ccccc1)N(O)CCCP(=O)([O-])O.[Na+]` [Compound 8e, Sodium hydrogen-3-(N-hydroxybenzamido)propyl phosphonate], the “M. tuberculosis MIC” value in assay [1] is reported as no less than 200 µg/mL. Moreover, in assay [3], the “inhibition of Yp Dxr (in words)” value is on record as “most active”; the “inhibitor modality (Lineweaver-Burk)” value was “competitive with both NADPH and DXP”; the “selectivity between Dxr homologs (Yp versus Mtb)” value (“selectivity between Dxr homologs” below) is reported as “significantly more potent against Yp Dxr”; the IC50 was found to be 4.45 µM. The Ki in assay [3] (read-out: Ki relative to DXP) turned out to be 7.9 µM. For the same compound, the Ki in assay [3] (read-out: Ki with respect to NADPH) was found to be 1.8 µM. Moreover, the “percent remaining enzyme activity at 100 µM (Mtb Dxr)” value in assay [5] was “(70) percent”.
For the compound `O=C(CCCc1ccccc1)N(O)CCCP(=O)([O-])O.[Na+]` [Compound 8h, Sodium hydrogen-3-(N-hydroxy-4-phenylbutanamido)propyl phosphonate], the “M. tuberculosis MIC” value in assay [1] was greater than 200 µg/mL. Moreover, in assay [3], the “inhibition of Yp Dxr (in words)” value is on record as “most active” and the “percent remaining enzyme activity at 100 µM (Yp Dxr)” value is on record as “(34) percent”. In addition, the binding modality entry in assay [2] is given as “competitively with DXP but noncompetitively with NADPH”. Moreover, in assay [5], the “inhibition of Mtb Dxr (in words)” value was “greatest inhibition” and the IC50 stood at 17.8 µM.
Consider `CC(=O)N(CCCP(=O)([O-])O)OCc1ccc(C(C)C)cc1.[Na+]` [Compound 16d, Sodium Hydrogen 3-(N-((4-isopropylbenzyl)oxy)acetamido)propyl phosphonate], for which the “M. tuberculosis MIC” value in assay [1] was 200 (25) µg/mL. Besides, in assay [3], the “inhibition of Yp Dxr (in words)” value is listed as “potent inhibitors; also recorded: most active”, the “selectivity between Dxr homologs” value is given as “more potent against Yp Dxr” and the IC50 came to 1.19 µM. Also, in assay [5], the “inhibition of Mtb Dxr (in words)” value is “potent inhibitors; also recorded: greatest inhibition” and the IC50 was found to be 48.4 µM.
In the case of `CC(=O)N(CCCP(=O)([O-])O)OCc1ccc2ccccc2c1.[Na+]` [Compound 16j, Sodium Hydrogen 3-(N-(naphthalen-2-ylmethoxy)acetamido)propyl phosphonate], in assay [1], the “M. tuberculosis MIC” value was no less than 200 µg/mL. For the same compound, in assay [3], the “inhibition of Yp Dxr (in words)” value is on record as “potent inhibitors; also recorded: most active” and the IC50 was 0.33 µM. Further, in assay [5], the “inhibition of Mtb Dxr (in words)” value is “potent inhibitors; also recorded: greatest inhibition”; the “inhibitor modality (Lineweaver-Burk)” value was “competitive with both NADPH and DXP”; the IC50 came out at 1.45 µM. The Ki in assay [5] (read-out: Ki relative to NADPH) turned out to be 17.8 µM. For the same compound, in assay [5] (read-out: Ki with respect to DXP), the Ki is 1 µM.
Take `CC(=O)N(CCCP(=O)([O-])O)OCc1ccc(-c2ccccc2)cc1.[Na+]` [Compound 16k, Sodium Hydrogen 3-(N-([1,1'-biphenyl]-4-ylmethoxy)acetamido)propyl phosphonate]: the “M. tuberculosis MIC” value in assay [1] lay within 25 to 50 µg/mL. In addition, in assay [3], the “inhibition of Yp Dxr (in words)” value is listed as “potent inhibitors; also recorded: most active”, the “selectivity between Dxr homologs” value is “more potent against Yp Dxr” and the IC50 worked out at 8.4 µM. In assay [5], the “inhibition of Mtb Dxr (in words)” value was “potent inhibitors; also recorded: greatest inhibition” and the “percent remaining enzyme activity at 100 µM (Mtb Dxr)” value is “(36.8) percent”.
Turning to `CC(=O)N(CCCP(=O)([O-])O)OCc1ccc(-c2ccc(C(C)C)cc2)cc1.[Na+]` [Compound 16p, Sodium Hydrogen 3-(N-((4'-isopropyl-[1,1'-biphenyl]-4-yl)methoxy)acetamido)propyl phosphonate], in assay [1], the “M. tuberculosis MIC” value was 100 (6.25–12.5) µg/mL.
On to `CC(=O)N(CCCP(=O)(OCOC(=O)C(C)(C)C)OCOC(=O)C(C)(C)C)OCc1ccc(C(C)C)cc1` [Compound 17, [({[(2,2-dimethylpropanoyl)oxy]methoxy}[3-(N-{[4-(propan-2-yl)phenyl]methoxy}acetamido)propyl]phosphoryl)oxy]methyl 2,2-dimethyl propanoate], for which the “M. tuberculosis MIC” value in assay [1] was 12.5 (6.25–12.5) µg/mL.
For `CC(=O)N(CCCP(=O)(OCOC(=O)C(C)(C)C)OCOC(=O)C(C)(C)C)OCCCCc1ccccc1` [Compound 18, [({[(2,2-dimethylpropanoyl)oxy]methoxy}({3-[N-(4-phenylbutoxy)acetamido]propyl})phosphoryl)oxy]methyl 2,2-dimethylpropanoate], the MIC in assay [1] turned out to be 12.5 µg/mL (≈ 22.4 µM).
Consider `CC(=O)N(CCCP(=O)(OCOC(=O)C(C)(C)C)OCOC(=O)C(C)(C)C)OCc1ccc(-c2ccccc2)cc1` [Compound 19, [({[(2,2-dimethylpropanoyl)oxy]methoxy}(3-{N-[(4-phenylphenyl)methoxy]acetamido}propyl)phosphoryl)oxy]methyl 2,2-dimethyl propanoate], for which the “M. tuberculosis MIC” value in assay [1] is recorded as 12.5 (3.13–6.25) µg/mL.
Regarding `CC(=O)N(CCCP(=O)(OCOC(=O)C(C)(C)C)OCOC(=O)C(C)(C)C)OCc1ccc2ccccc2c1` [Compound 20, [({[(2,2-dimethylpropanoyl)oxy]methoxy}({3-[N-(naphthalen-2-ylmethoxy)acetamido]propyl})phosphoryl)oxy]methyl 2,2-dimethylpropanoate], in assay [1], the “M. tuberculosis MIC” value is listed as 18.75 (4.7) µg/mL.
Consider `CC(=O)N(CCCP(=O)(OCOC(=O)c1ccccc1)OCOC(=O)c1ccccc1)OCCCCc1ccccc1` [Compound 21, [({[(benzoyl)oxy]methoxy}({3-[N-(4-phenylbutoxy)acetamido]propyl})phosphoryl)oxy]methyl benzoate], for which, in assay [1], the MIC is 25 µg/mL (≈ 41.8 µM).
As for `NNC(=O)c1ccncc1` [INH, reference compound], the “M. tuberculosis MIC” value in assay [1] was 0.01 µg/mL.

(Values after publication PMC5266543 (ACS infectious diseases, 2016).)
